Patent US20240116946A1 (Gilead Sciences, Inc., priority 2022, published 2024)
Read-outs that look alike come from different tables or passages of the source.

Tests used:
[1] = biological target: recombinant SARS-CoV-2 Main protease (Mpro) (Severe acute respiratory syndrome coronavirus 2 (2019-nCoV) (SARS-CoV-2), UniProt P0DTD1); assay: Cov Mpro Biochemical IC50 Assay; settings: recombinant SARS-CoV-2 Mpro, fluorogenic peptide substrate; read-out: MPro IC50
SARS-CoV-2-NLuc = assay: microbe, parasite or virus in culture; type: cell-based, SARS Coronavirus 2
[2] = Severe acute respiratory syndrome coronavirus, 48 h, read-out: MPro EC50
[3] = Severe acute respiratory syndrome coronavirus, 48 h; read-out: MPro EC50

SMILES | IC50 [1] | EC50 (SARS-CoV-2-NLuc; [2]) | EC50 (SARS-CoV-2-NLuc; [3])
COc1ccc(C)c(-c2cc3[nH]c(=O)n(-c4cncc5ccccc45)c(=O)c3s2)c1 [Example 349] | 7.23 nM | 30 nM | –
Cc1cc(-c2cc3[nH]c(=O)n(-c4cncc5ccccc45)c(=O)c3s2)c(Cl)cc1F [Example 350] | 17.2 nM | 49.2 nM | –
O=c1[nH]c2cc(-c3cc(C4CC4)ccc3Cl)sc2c(=O)n1-c1cncc2ccccc12 [Example 351] | 19.6 nM | 69.2 nM | –
Cc1ncc(-c2cccc(Cl)c2-c2ccc3c(=O)n(-c4cncc5ccccc45)c(=O)[nH]c3c2)n1C [Example 352] | 41.8 nM | 120 nM | –
O=c1[nH]c2cc(-c3c(Cl)cccc3-c3ccc4c(c3)OC(F)(F)O4)sc2c(=O)n1-c1cncc2ccccc12 [Example 353] | 143 nM | 31.5 nM | –
O=c1[nH]c2cc(-c3c(Cl)cccc3-c3ccc4c(c3)OCCO4)sc2c(=O)n1-c1cncc2ccccc12 [Example 354] | 45.6 nM | 12.8 nM | –
Cc1noc(C)c1-c1cccc(Cl)c1-c1cc2[nH]c(=O)n(-c3cncc4ccccc34)c(=O)c2s1 [Example 355] | 9.64 nM | 22.9 nM | –
O=c1[nH]c2cc(-c3c(Cl)cccc3-c3ccc4c(c3)OCO4)ccc2c(=O)n1-c1cncc2ccccc12 [Example 356] | 130 nM | 52.2 nM | –
O=c1[nH]c2cc(-c3c(Cl)cccc3-c3ccc4c(c3)OC(F)(F)O4)ccc2c(=O)n1-c1cncc2ccccc12 [Example 357] | 373 nM | 68.1 nM | –
O=c1[nH]c2cc(-c3c(Cl)cccc3-c3ccc4c(c3)OCCO4)ccc2c(=O)n1-c1cncc2ccccc12 [Example 358] | 177 nM | 113 nM | –
Cc1nc2cc(-c3cccc(Cl)c3-c3ccc4c(=O)n(-c5cncc6ccccc56)c(=O)[nH]c4c3)ccc2o1 [Example 359] | 107 nM | 91.4 nM | –
O=C1NCc2cc(-c3cccc(Cl)c3-c3ccc4c(=O)n(-c5cncc6ccccc56)c(=O)[nH]c4c3)ccc21 [Example 360] | 19.4 nM | 42.1 nM | –
O=c1[nH]c2cc(-c3c(Cl)cccc3-c3ccc4oncc4c3)ccc2c(=O)n1-c1cncc2ccccc12 [Example 361] | 38.9 nM | 178 nM | –
Cc1noc(C)c1-c1cc2[nH]c(=O)n(-c3cncc4ccccc34)c(=O)c2s1 [Example 362] | 35.6 nM | 201 nM | –
Cc1nn(C)cc1-c1cc2[nH]c(=O)n(-c3cncc4ccccc34)c(=O)c2s1 [Example 363] | 129 nM | 785 nM | –
COc1cnc(Cl)c(-c2cc3[nH]c(=O)n(-c4cncc5ccccc45)c(=O)c3s2)c1 [Example 364, 6-(2-chloro-5-methoxypyridin-3-yl)-3-(isoquinolin-4-yl)thieno[3,2-d]pyrimidine-2,4(1H,3H)-dione] | 5.31 nM | 18.2 nM | –
COc1cc(-c2cc3[nH]c(=O)n(-c4cncc5ccccc45)c(=O)c3s2)c(Cl)cn1 [Example 365] | 100 nM | 343 nM | –
Cc1nn(C)cc1-c1cc2[nH]c(=O)n(-c3cncc(C4CC4)c3)c(=O)c2s1 [Example 366] | 36800 nM | – | 32200 nM
COc1ccc(Cl)c(-c2cc3[nH]c(=O)n(-c4cncc(C5CC5)c4)c(=O)c3s2)c1 [Example 367] | 8.9 nM | – | 21.1 nM
Cc1noc(C)c1-c1cc2[nH]c(=O)n(-c3cncc(C4CC4)c3)c(=O)c2s1 [Example 368] | 411 nM | – | 1920 nM
COc1cnc(Cl)c(-c2cc3[nH]c(=O)n(-c4cncc(C5CC5)c4)c(=O)c3s2)c1 [Example 369] | 9.23 nM | – | 110 nM
O=c1[nH]c2cc(-c3c(Cl)cccc3Cl)sc2c(=O)n1-c1cncc(C2CC2)c1 [Example 370, 3-(5-cyclopropylpyridin-3-yl)-6-(2,6-dichlorophenyl)thieno[3,2-d]pyrimidine-2,4(1H,3H)-dione] | 273 nM | – | 388 nM
COc1ccc(Cl)c(-c2ccc3c(=O)n(-c4cncc5ccc(F)cc45)c(=O)[nH]c3c2)c1 [Example 371] | 55.9 nM | – | 108 nM
Cc1cncc(-n2c(=O)[nH]c3cc(-c4ccccc4Cl)sc3c2=O)c1OCC(F)(F)F [Example 372] | 77.8 nM | 176 nM | –
COc1ccc(Cl)c(-c2cc3[nH]c(=O)n(-c4cncc(C)c4OCC(F)(F)F)c(=O)c3s2)c1 [Example 373] | 14.6 nM | – | 46.9 nM
Cc1cncc(-n2c(=O)[nH]c3cc(-c4ccccc4Cl)ccc3c2=O)c1OCC(F)(F)F [Example 374] | 1130 nM | 1240 nM | –
COc1ccc(Cl)c(-c2ccc3c(=O)n(-c4cncc(C)c4OCC(F)(F)F)c(=O)[nH]c3c2)c1 [Example 375] | 345 nM | – | 632 nM
CC(C)c1cncc(-n2c(=O)[nH]c3cc(-c4ccccc4Cl)sc3c2=O)c1 [Example 376] | 43300 nM | 47300 nM | –
